Experimental data taken from patent US10576062B2, “Carbamoyloxymethyl triazole cyclohexyl acids as LPA antagonists” (Bristol-Myers Squibb Company, priority 2016, dated 2020).
pIC50: −log10 of the molar value.

These compounds were tested against T1, human LPA1 (Homo sapiens, UniProt Q92633) (assay: LPA1 functional antagonist assay (LPA-induced calcium flux)). Details: read-out: hLPA1 IC50.
T1 construct: expressed in transfected cells; host or cells: Chinese hamster ovary (CHO) cells
Type: cell-based
How it was run: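 CHO cells overexpressing human LPA1, loaded with calcium dye 30 min at 37° C, were preincubated 20 min at room temperature with compound (0.08 nM–5 μM, 0.5% DMSO) in HBSS/20 mM HEPES/0.1% fatty acid-free BSA.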

T1 sequence (Q92633 whole entry): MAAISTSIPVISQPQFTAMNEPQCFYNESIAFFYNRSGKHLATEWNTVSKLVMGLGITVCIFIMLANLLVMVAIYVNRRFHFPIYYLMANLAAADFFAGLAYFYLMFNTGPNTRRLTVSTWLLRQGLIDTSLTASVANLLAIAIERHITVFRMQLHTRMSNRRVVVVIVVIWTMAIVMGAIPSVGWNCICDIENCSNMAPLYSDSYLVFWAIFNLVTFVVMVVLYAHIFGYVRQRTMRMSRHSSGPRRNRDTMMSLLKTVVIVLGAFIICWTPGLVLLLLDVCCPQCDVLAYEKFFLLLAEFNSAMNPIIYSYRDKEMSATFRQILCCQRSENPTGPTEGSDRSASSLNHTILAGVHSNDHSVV

Row | SMILES | pIC50
1 | C[C@@H](C1CC1)N(C)C(=O)OCc1c(-c2ccc(O[C@H]3CCC[C@H](C(=O)O)C3)cc2)nnn1C [Example 52, (1S,3S)-3-(4-(5-(((((S)-1-cyclopropylethyl)(methyl)carbamoyl)oxy)methyl)-1-methyl-1H-1,2,3-triazol-4-yl)phenoxy)cyclohexane-1-carboxylic acid] | 6.71
2 | CC(C)CN(C)C(=O)OCc1c(-c2ccc(O[C@H]3CCC[C@H](C(=O)O)C3)cc2)nnn1C [Example 53, (1S,3S)-3-(4-(5-(((isobutyl(methyl)carbamoyl)oxy)methyl)-1-methyl-1H-1,2,3-triazol-4-yl)phenoxy)cyclohexane-1-carboxylic acid] | 6.36
3 | CN(C(=O)OCc1c(-c2ccc(O[C@@H]3CCC[C@@H](C(=O)NS(C)(=O)=O)C3)cc2)nnn1C)C1CCCC1 [Example 72, (1-Methyl-4-(4-(((1R,3R)-3-((methylsulfonyl)carbamoyl)cyclohexyl)oxy)phenyl)-1H-1,2,3-triazol-5-yl)methyl cyclopentyl(methyl)carbamate] | 5.56
4 | CN(C(=O)OCc1c(-c2ccc(O[C@H]3CCC[C@H](C(=O)O)C3)cc2)nnn1C)C1CCC1 [Example 73, (1S,3S)-3-(4-(5-(((cyclobutyl(methyl)carbamoyl)oxy)methyl)-1-methyl-1H-1,2,3-triazol-4-yl)phenoxy)cyclohexane-1-carboxylic acid] | 7.21
5 | CN(C(=O)OCc1c(-c2ccc(O[C@H]3CCC[C@H](C(=O)O)C3)cc2)nnn1C)C(C1CC1)C1CC1 [Example 74, (1S,3S)-3-(4-(5-((((Dicyclopropylmethyl)(methyl)carbamoyl)oxy)methyl)-1-methyl-1H-1,2,3-triazol-4-yl)phenoxy)cyclohexanecarboxylic acid] | 7.00

Now those with a higher pIC50, led by results:

Row | pIC50 | SMILES
6 | 8.15 | CCCCN(C)C(=O)OCc1c(-c2ccc(O[C@H]3CCC[C@H](C(=O)O)C3)cn2)nnn1C [Example 43, (1S,3S)-3-((6-(5-(((butyl(methyl)carbamoyl)oxy)methyl)-1-methyl-1H-1,2,3-triazol-4-yl)pyridin-3-yl)oxy)cyclohexane-1-carboxylic acid]
7 | 8.22 | CN(C(=O)OCc1c(-c2ccc(O[C@H]3CCC[C@H](C(=O)O)C3)c(F)c2)nnn1C)C1CCCC1 [Example 44, (1S,3S)-3-(4-(5-(((cyclopentyl(methyl)carbamoyl)oxy)methyl)-1-methyl-1H-1,2,3-triazol-4-yl)-2-fluorophenoxy)cyclohexane-1-carboxylic acid]
8 | 8.22 | CCCCN(C)C(=O)OCc1c(-c2ccc(O[C@H]3CCC[C@H](C(=O)O)C3)c(F)c2)nnn1C [Example 46, (1S,3S)-3-(4-(5-(((butyl(methyl)carbamoyl)oxy)methyl)-1-methyl-1H-1,2,3-triazol-4-yl)-2-fluorophenoxy)cyclohexane-1-carboxylic acid]
9 | 8.52 | CC(C)CCN(C)C(=O)OCc1c(-c2ccc(O[C@H]3CCC[C@H](C(=O)O)C3)c(F)c2)nnn1C [Example 47, (1S,3S)-3-(2-fluoro-4-(5-(((isopentyl(methyl)carbamoyl)oxy)methyl)-1-methyl-1H-1,2,3-triazol-4-yl)phenoxy)cyclohexane-1-carboxylic acid]
10 | 8.00 | C[C@H](C1CC1)N(C)C(=O)OCc1c(-c2ccc(O[C@H]3CCC[C@H](C(=O)O)C3)c(F)c2)nnn1C [Example 70, (1S,3S)-3-(4-(5-(((((R)-1-cyclopropylethyl)(methyl)carbamoyl)oxy)methyl)-1-methyl-1H-1,2,3-triazol-4-yl)-2-fluorophenoxy)cyclohexane-1-carboxylic acid]
11 | 7.70 | CCCC1(N(C)C(=O)OCc2c(-c3ccc(O[C@H]4CCC[C@H](C(=O)O)C4)cc3)nnn2C)CC1 [Example 75, (1S,3S)-3-(4-(1-methyl-5-(((methyl(1-propylcyclopropyl)carbamoyl)oxy)methyl)-1H-1,2,3-triazol-4-yl)phenoxy)cyclohexane-1-carboxylic acid]
